According to patent US20020058266A1, “EF-Tu protein encoded on the plastid DNA of the malaria parasite and protein synthesis inhibitors effective as anti-malarial compounds” (priority 1997, published 2002):
*1 amine or outer side, *2 acyl side, *3 side chain or, on linkers, in order; H or OH if unused. Where a SMILES comes first, the peptide text is derived from it. Bridges are numbered along the chain shown (N, C = ends). [ ]: non-standard residue; d: D form. The star is where a group is joined. X1 = NC1=N[C@@H]([C@H](N[*:1])C(=O)[*:2])C[C@H](O)N1; ΔAla(Z-3-ureido) = NC(=O)N/C=C(\N)C(=O)O; β3hOrn = NCCC[C@H](N)CC(=O)*; Dap = NC[C@H](N)C(=O)O

Experiments:
[1] = tested on: erythrocytic stages of P.falciparum; assay: Incorporation of radiotracers (3H-hypoxanthine, 14C-isoleucine) by P.falciparum growing in blood cultures; assay type: cell-based, Plasmodium falciparum; conditions: for concentration at which maximum inhibition of radiotracer incorporation was achieved: cultures over a 36 hr period
Method: Antibiotics—Samples of Mocimycin (kirromycin), Aurodox (N-methylated kirromycin), and Efrotomycin (a glycoside of kirromycin) were used. Aurodox was dissolved in RPMI-Albumax medium (Grande et al 1977), kirromycin was dissolved in RPMI made alkaline by addition of 1M NaOH, and efrotomycin was dissolved in ethanol before dilution in culture medium. Enacyloxin IIA was dissolved in 1% NaHCO3 prior to dilution in RPMI-Albumax medium. The antibiotic GE2270A was dissolved in 100% DMSO before dilution in culture medium. Fusidic acid (Sigma) was dissolved directly in culture medium, and thiostrepton (Sigma) in 100% DMSO before dilution in culture medium. A hemisuccinate form of thiostrepton was prepared as a potassium salt, according to Bodanszky et al 1965. Incorporation of radiotracers by P.falciparum growing in blood cultures in the presence and absence of drugs was carried out as described (Strath et al 1993).
(§1) Kirromycin: Kirromycin-resistant forms of bacterial EF-Tu are modified at one of seven amino acids along the opposing interfaces of domains I and III (Mesters et al 1994 and Abdulkarim et al 1994) and Pf EF-Tupl has a substitution at one of these sites (A375S-E.coli numbers) that could potentially confer resistance to kirromycin. To test this possibility, kirromycin (Mocimycin), its methylated derivative Aurodox or its disaccharide derivative Efrotomycin were incubated with erythrocytic stages of P.falciparum grown in cultures over a 36 hr period. The incorporation of both ^3H-hypoxanthine and ^14C-isoleucine was inhibited in a dose-dependent fashion, maximum inhibition being achieved at 100 μM kirromycin (FIG. 5). […] Once maximal depression of incorporation had been reached at any particular dose of drug, residual incorporation continued at a uniform rate thereafter. Vital staining with rhodamine 123, a fluorescent dye that concentrates within the mitochondrion (Divo et al. 1985) confirmed the parasiticidal effect, loss of specific mt staining being evident within 2-3 hours (data not shown). […] Blood cultures of P.falciparum were about 10 times more sensitive to the antibiotic than a gram-positive bacterium (Corynebacterium spp) used in parallel bioassays.

P.falciparum [2] = assay: Vital staining with rhodamine 123 (mitochondrial staining of parasites); assay type: cell-based, Plasmodium falciparum; conditions: data not shown
Method: as §1

P.chabaudi = assay: Mice infected with P.chabaudi; assay type: in vivo; conditions: for development of the infection in mice: intraperitoneally 0.1 ml of 100 mM
Method: The solid line is for aurodox, the dotted line is for mocimycin and the dashed line is for no drug controls. The arrows on the x-axis indicate days on which three 0.1 ml 100 mM ip injections were given.
On the basis of these findings, preliminary studies were carried out on mice infected with P.chabaudi. In the first experiment, mice were infected and inoculated on the same day intraperitoneally with 0.1 ml of 100 mM Aurodox, a dose calculated to mimic the maximal inhibitory effect observed in vitro. […] In a single experiment.

P.falciparum [3] = assay: Treatment of parasites, removal of antibiotic by washing and 2 weeks follow-up in vitro; assay type: cell-based, Plasmodium falciparum; conditions: 1 mM for 1.5 cell cycles, washing, follow-up for 2 weeks in vitro
Corynebacterium spp = assay: Parallel bioassay with a gram-positive bacterium; assay type: cell-based; conditions: parallel bioassays
Method: as §1

[4] = in vivo; cited from earlier work
[5] = target: T1, heterologously expressed Pf EF-Tupl (Plasmodium falciparum, UniProt Q25820); assay: Band shift in native polyacrylamide gel with expressed Pf EF-Tupl; assay type: binding; conditions: 100 μM antibiotic, 100 μM GDP, native 12% polyacrylamide gel
T1 construct: one clone in JM109 contained the complete insert; GST (cleaved yes); made in house; host or cells: E. coli JM109 (pGEX)
T1 sequence (Q25820 whole entry): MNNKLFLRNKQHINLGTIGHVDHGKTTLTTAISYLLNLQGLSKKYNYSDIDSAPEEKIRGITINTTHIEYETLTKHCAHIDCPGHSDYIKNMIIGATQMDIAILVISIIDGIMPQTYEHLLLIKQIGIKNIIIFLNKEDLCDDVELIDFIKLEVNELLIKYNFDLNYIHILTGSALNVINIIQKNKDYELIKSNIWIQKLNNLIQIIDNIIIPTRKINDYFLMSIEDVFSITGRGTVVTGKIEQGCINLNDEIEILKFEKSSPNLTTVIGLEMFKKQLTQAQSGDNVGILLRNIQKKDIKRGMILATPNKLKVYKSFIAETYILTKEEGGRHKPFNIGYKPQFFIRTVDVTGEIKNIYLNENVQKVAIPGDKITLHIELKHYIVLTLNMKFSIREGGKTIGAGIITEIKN
Method: FIG. 13 contains immunoblots showing that binding of antibiotics modifies migration of EF-Tu.GDP in native polyacrylamide gels. Two segments of the same gel show A) heterologously expressed Pf EF-Tupl protein detected with a malaria peptide-specific antibody and B) E.coli EF-Tu detected with a specific antibody (Breidenbach et al 1990). Lanes without antibiotics (1 and 5), lanes with 100 μM antibiotic: GE2270A (2 and 6), enacyloxin lla (3 and 7), kirromycin (4 and 8). Arrows indicate uncomplexed EF-Tu.
Drug binding—Thiostrepton binding to short rRNA transcripts generated in vitro was assayed according to Ryan et al 1991, as modified by Clough et al 1997. […] Before […], samples were incubated on ice for 15 mins in 50 mM imidazole acetate (pH 7.6), 10 mM NH4Cl, 10 mM MgCl2, 1 mM […] and 100 μM GDP, in a final volume of 20 μl.
The material tufA gene in pGEX was expressed as an insoluble fusion protein in E.coli JM 109. The protein was detected either with antibodies to the GST tag or with antibodies to a specific peptide sequence in domain I ([…]) not found on E.coli EF-Tu. Washed inclusion bodies were dissolved and refolded by dilution (Lin et al 1991).

[6] = tested on: Pf 28S cytosolic rRNA (cytosolic ribosomes); assay: Puromycin shift of polysomes on sucrose gradients, cytosolic rRNA probe; assay type: biochemical, Plasmodium falciparum; conditions: 2 mM puromycin; anisomycin 3 mM pre-treatment
Method: (§2) Polysome preparation and puromycin shift—P.falciparum was grown in blood cultures (Trager et al 1976) and ribosomes prepared as described (Sherman et al 1975). Parasitized erythrocytes were lysed for 1 hr on ice in a buffer containing 0.14% Nonidet P-40 (Trade Name), 25 mM KCl, 10 mM MgCl2, 380 mM-sucrose, 6.5 mM β-mercaptoethanol and 50 mM Tris HCl, pH 7.6. The lysate was centrifuged×3 at 10,000 g for 10 min at 4° C. to remove genomic DNA and other cell debris before further centrifugation at 105,000 g for 1 hr in an SW40 rotor (Trade Name, Beckman) at 4° C. The resulting pellet was resuspended in 25 mM KCl, 5 mM MgCl2 and 50 mM Tris HCl (pH 7.6) and homogenized by hand (×50 strokes) with a glass dounce homogenizer (Wheatstone, USA). The suspension was centrifuged at 10,000 g for 10 min at 4° C. and the crude pellet discarded before further centrifugation for 2 hr at 105,000 g in an SW55 rotor (Beckman) at 4° C. The pellet was resuspended in 10 mM Tris HCl, 10 mM MgCl2, 100 mM KCl and homogenized again to give a suspension of ribosomes. […]
(§3) In an experiment with RNase (Cox 1969), total polysomes were incubated with a range of concentrations of RNase (1-13 ng ml^−1 ribosomes, Boehringer) prior to centrifugation for 30 min at 26° C. […] Hybridization signals were quantitated using a Molecular Dynamics phosphor imager. […]

[7] = tested on: Pf 16S rRNApl (plastid ribosomes); assay: Puromycin shift of polysomes on sucrose gradients, plastid rRNA probe; assay type: biochemical, Plasmodium falciparum; conditions: 2 mM puromycin; anisomycin 3 mM pre-treatment
Method: as §2, §3

eukaryotic cells = conditions: at 100 μM; cited from earlier work
[8] = 3H-hypoxanthine and 14C-isoleucine

Compound: C/C=C\C=C\[C@@H]1O[C@](O)([C@H](CC)C(=O)NC/C=C/C=C(\C)[C@@H](OC)[C@@H](C)[C@@H]2O[C@H](/C=C/C=C/C=C(\C)C(=O)c3c(O)ccn(C)c3=O)[C@H](O)[C@@H]2O)[C@H](O)[C@H](O)C1(C)C [Aurodox, 1-methylmocimycin]
- first inhibitory effects on ring stage parasites, time after exposure ([1]; synchronized cultures): as early as five hours
- inhibitory effects maximal, time of exposure ([1]; synchronized cultures, ring stage parasites): 10 h
- loss of specific mt staining evident, time (P.falciparum [2]): 2 to 3 h
- development of the infection in mice (P.chabaudi): lag in development of the infection compared with untreated controls
- parasite death or stasis (P.falciparum [3]): parasite death rather than stasis
- sensitivity of P.falciparum blood cultures relative to Corynebacterium spp (Corynebacterium spp): about 10 times

Compound: C/C=C/C=C/[C@@H]1O[C@](O)([C@H](CC)C(=O)NC/C=C/C=C(\C)[C@@H](OC)[C@@H](C)[C@@H]2O[C@H](/C=C/C=C/C=C(\C)C(=O)c3c(O)ccn(C)c3=O)[C@H](O)[C@@H]2O)[C@H](O)[C@H](O[C@@H]2O[C@H](C)[C@@H](O[C@@H]3O[C@@H](C)[C@H](OC)[C@@H](O)[C@H]3OC)[C@@H](OC)[C@H]2O)C1(C)C [Efrotomycin]
- oral absorption and plasma half-life [4]: rapid oral absorption and prolonged plasma half-life

Compound: CC/C=C/C(OC(N)=O)C(Cl)C(O)CC(=O)C(O)C(O)C(C)/C(Cl)=C/C=C/C=C(C)/C=C/C=C/C(=O)O[C@@H]1C[C@@H](C(=O)O)CC[C@@H]1O (some centres unmarked) [Enacyloxin IIa]
- mobility (Mr) of the GDP form of the EF-Tu complex [5]: increased

Compound: CC(=O)O[C@H]1C[C@@]2(C)[C@@H](C[C@@H](O)[C@H]3[C@@]4(C)CC[C@@H](O)[C@@H](C)[C@@H]4CC[C@@]32C)/C1=C(\CCC=C(C)C)C(=O)O [Fusidic acid]
- concentration at which maximum inhibition of radiotracer incorporation was achieved [1, 8]: 200 µM
- effect on parasitaemias in mice (P.chabaudi; even at toxic dose levels, preliminary experiments): little effect on parasitaemias

Compound: CNC(=O)C[C@@H]1NC(=O)c2csc(n2)-c2ccc(-c3nc(C4=N[C@H](C(=O)N5CCC[C@H]5C(N)=O)CO4)cs3)nc2-c2csc(n2)-c2csc(n2)[C@H]([C@@H](O)c2ccccc2)NC(=O)CNC(=O)c2nc(sc2COC)[C@H](C(C)C)NC(=O)c2nc1sc2C [GE2270]
- inhibition of radiotracer incorporation in blood cultures, compared with other antibiotics ([1]; 3H-hypoxanthine and 14C-isoleucine, blood cultures): more inhibitory in blood cultures than either kirromycin or thiostrepton
- mobility (Mr) of the GDP form of the EF-Tu complex [5]: decreased

Compound: COc1ccc(C[C@H]2NC[C@H](O)[C@H]2OC(C)=O)cc1 [anisomycin]
- puromycin-shift of the hybridization signal, cytosolic rRNA [6]: blocked the puromycin-induced shift

Compound: COc1ccc(C[C@H](N)C(=O)N[C@H]2[C@@H](O)[C@H](n3cnc4c(N(C)C)ncnc43)O[C@@H]2CO)cc1 [puromycin]
- puromycin-shift of the hybridization signal, cytosolic rRNA [6]: caused a shift
- puromycin-shift of the hybridization signal, plastid rRNA [7]: caused a shift

Compound: NCCC[C@H](N)CC(=O)N[C@H]1CNC(=O)[C@H]([C@H]2C[C@H](O)NC(N)=N2)NC(=O)/C(=C/NC(N)=O)NC(=O)[C@H](CO)NC(=O)[C@H](CO)NC1=O [viomycin] (β3hOrn-[Dap]SS[ΔAla(Z-3-ureido)][X1]; lactam 1-C)
- effect on P.falciparum (specificity control) ([1]; data not shown): lack of effect

Compound: kirromycin
- concentration at which maximum inhibition of radiotracer incorporation was achieved [1, 8]: 100 µM
- mobility (Mr) of the GDP form of the EF-Tu complex [5]: increased
- development of the infection in mice (P.chabaudi): less effective in vivo than Aurodox
- effect on RNA, DNA and protein synthesis (eukaryotic cells): blocks RNA synthesis without affecting DNA or protein synthesis
